From the supplement of paper PMC10307832

Key:
Experiment in all cases: relative viability (nuclei count vs DMSO), 5 days (fraction); higher = more cells survive
[1] = compound: Cc1ccc2nc(NCCN)c3ncc(C)n3c2c1 + CC(=O)c1c(C)c2cnc(Nc3ccc(N4CCNCC4)cn3)nc2n(C2CCCC2)c1=O [Palbociclib] (partner 0.5 µM)
Summary of the method: (§1)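 Relative viability was taken as the ratio of nuclei in treated wells to nuclei in vehicle wells. Lung cancer cell lines in 1536-well plates received compounds by pin tool one day after seeding, either one drug alone or a fixed anchor-drug dose plus five library-drug doses (not always all listed) in √10 steps. Nuclei were counted on 4× images after 5 days of treatment, and values are medians of duplicate plates.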

[2] = compound: O=C(/C=C/c1ccccc1)NC(NC(=S)Nc1cccc2cccnc12)C(Cl)(Cl)Cl [Salubrinal] + CC1(C)CCC(c2ccc(Cl)cc2)=C(CN2CCN(c3ccc(C(=O)NS(=O)(=O)c4ccc(N[C@H](CCN5CCOCC5)CSc5ccccc5)c(S(=O)(=O)C(F)(F)F)c4)cc3)CC2)C1 [Navitoclax] (partner 0.5 µM)
Summary of the method: as §1

[3] = compound: O=C(/C=C/c1ccccc1)NC(NC(=S)Nc1cccc2cccnc12)C(Cl)(Cl)Cl [Salubrinal] + CS(=O)(=O)N1CCN(Cc2cc3nc(-c4cccc5[nH]ncc45)nc(N4CCOCC4)c3s2)CC1 [Pictilisib] (partner 1 µM)
Summary of the method: as §1

[4] = compound: O=C(/C=C/c1ccccc1)NC(NC(=S)Nc1cccc2cccnc12)C(Cl)(Cl)Cl [Salubrinal] + Cc1nc(Nc2ncc(C(=O)Nc3c(C)cccc3Cl)s2)cc(N2CCN(CCO)CC2)n1 [Dasatinib] (partner 0.075 µM)
Summary of the method: as §1

Q: What does the source list for UMC-11?
A: relative viability ([1]; first compound 0.04 µM): 0.34; relative viability ([1]; first compound 0.1265 µM): 0.322; relative viability ([1]; first compound 0.4 µM): 0.322; relative viability ([1]; first compound 1.265 µM): 0.317; relative viability ([1]; first compound 4 µM): 0.341; relative viability ([2]; first compound 0.08 µM): 0.281; relative viability ([2]; first compound 0.253 µM): 0.301; relative viability ([2]; first compound 0.8 µM): 0.329; relative viability ([2]; first compound 2.53 µM): 0.318; relative viability ([2]; first compound 8 µM): 0.305; relative viability ([3]; first compound 0.08 µM): 0.655; relative viability ([3]; first compound 0.253 µM): 0.688; relative viability ([3]; first compound 0.8 µM): 1.02; relative viability ([3]; first compound 2.53 µM): 0.933; relative viability ([3]; first compound 8 µM): 0.882; relative viability ([4]; first compound 0.08 µM): 0.654; relative viability ([4]; first compound 0.253 µM): 0.306; relative viability ([4]; first compound 0.8 µM): 0.621; relative viability ([4]; first compound 2.53 µM): 0.458; relative viability ([4]; first compound 8 µM): 0.471
